Source: patent US6737425B1, “N,N-substituted cyclic amine derivatives” (Eisai Co., Ltd., priority 1998, dated 2004)
pIC50: −log10 of the molar value.

Tested on: voltage-dependent calcium channels (cerebral cortex synaptosome)
Experiment: Measurement of voltage-dependent calcium channel activity by the use of a fluorescent pigment (fura 2)
Format: cell-based
Settings: rat cerebral cortex synaptosome, fura 2, KCl stimulation, compound incubated 10 minutes
Protocol: Measurement of Voltage-dependent Calcium Channel Activity by the use of a Fluorescent Pigment (fura 2)
Cerebral cortexes were removed from cut rat brains and disrupted roughly with scissors. These were introduced into a homogenizer, homogenized in 0.3 M saccharose and centrifuged at 4° C. (1,500 g×10 min). The resulting supernatant was further centrifuged at 4° C. (10,000 g×20 min). The resulting precipitates were suspended in 0.3 M saccharose. The suspension was layered on 0.8 M saccharose and centrifuged (10,000 g×30 min.).
4 μM fura 2/AM (Dojin Ltd.) was suspended in solution A to prepare a loading solution. To the synaptosome solution prepared in the method described above was added an equal volume of the loading solution, and the mixture was incubated for 40 minutes at room temperature.
As comparative and control compound, verapamil hydrochloride was used.

Row | Structure (SMILES) | pIC50
1 | CC(C)C(C#N)(CCN1CCN(CCOc2ccc(F)cc2)CC1)c1ccccc1 (centres unmarked) [Example 25, 1-[(3-Cyano-4-methyl-3-phenyl)pentyl]-4-[2-(4-fluourophenoxy)ethyl]piperazine] | 5.01
2 | CCCC(C#N)(CCCN1CCN(CCOc2ccc(F)cc2)CC1)c1ccccc1 (centres unmarked) [Example 27, 1-[(4-Cyano-4-phenyl)heptyl]-4-[2-(4-fluorophenoxy)ethyl]piperazine] | 5.34
3 | CCC(C#N)(CCCN1CCN(CCOc2ccc(F)cc2)CC1)c1ccccc1 (centres unmarked) [Example 28, 1-[(4-Cyano-4-phenyl)hexyl]-4-[2-(4-fluorophenoxy)ethyl]piperazine] | 5.14
4 | CCCCC(C#N)(CCCN1CCN(CCOc2ccc(F)cc2)CC1)c1ccccc1 (centres unmarked) [Example 29, 1-[(4-Cyano-4-phenyl)octyl]-4-[2-(4-fluorophenoxy)ethyl]piperazine] | 5.40
5 | CC(C)CC(C#N)(CCCN1CCN(CCOc2ccc(F)cc2)CC1)c1ccccc1 (centres unmarked) [Example 30, 1-[(4-Cyano-6-methyl-4-phenyl)hepthyl]-4-[2-(4-fluorophenoxy)ethyl]piperazine] | 5.54
6 | CC(C)C(C#N)(CCCN1CCN(CCOc2ccccc2F)CC1)c1ccccc1 (centres unmarked) [Example 31] | 5.03
7 | CC(C)C(C#N)(CCCN1CCN(CCOc2cccc(F)c2)CC1)c1ccccc1 (centres unmarked) [Example 32, 1-[(4-Cyano-5-methyl-4-phenyl)hexyl]-4-[2-(3-fluorophenoxy)ethyl]piperazine] | 5.21
8 | CC(C)C(C#N)(CCCN1CCN(CCCCCOc2ccc(F)cc2)CC1)c1ccccc1 (centres unmarked) [Example 33] | 5.47
9 | CC(C)C(C#N)(CCCCN1CCN(CCOc2ccc(F)cc2)CC1)c1ccccc1 (centres unmarked) [Example 34] | 5.42
10 | CC(C)C(C#N)(CCCN1CCN(CCOc2ccc(F)c(F)c2)CC1)c1ccccc1 (centres unmarked) [Example 35, 1-[(4-Cyano-5-methyl-4-phenyl)hexyl]-4-[2-(3,4-difluorophenoxy)ethyl]piperazine] | 5.28
11 | CC(C)C(C#N)(CCCN1CCN(CCOc2ccc(F)cc2)CC1)c1ccc(Cl)c(Cl)c1 (centres unmarked) [Example 37, 1-{[4-Cyano-5-methyl-4-(3,4-dichlorophenyl)hexyl]}-4-[2-(4-fluorophenoxy)ethyl]piperazine] | 5.57
12 | N#CC(CCCN1CCN(CCOc2ccc(F)cc2)CC1)(c1ccccc1)C1CCCCC1 (centres unmarked) [Example 38] | 5.40
13 | COc1ccc(OCCN2CCN(CCCC(C#N)(c3ccccc3)C(C)C)CC2)cc1 (centres unmarked) [Example 39, 1-[(4-Cyano-5-methyl-4-phenyl)hexyl]-4-[2-(4-methoxyphenoxy)ethyl]piperazine] | 5.02
14 | COc1cccc(OCCN2CCN(CCCC(C#N)(c3ccccc3)C(C)C)CC2)c1OC (centres unmarked) [Example 40, 1-[(4-Cyano-5-methyl-4-phenyl)hexyl]-4-[2-(2,3-dimethoxyphenoxy)ethyl]piperazine] | 5.00
15 | CC(C)C(C#N)(CCCN1CCN(CCOc2ccc(N(C)C)cc2)CC1)c1ccccc1 (centres unmarked) [Example 43, 1-[(4-Cyano-5-methyl-4-phenyl)hexyl]-4-[2-(4-dimethylaminophenoxy)ethyl]piperazine] | 4.89
16 | CSc1ccc(OCCN2CCN(CCCC(C#N)(c3ccccc3)C(C)C)CC2)cc1 (centres unmarked) [Example 45, 1-[(4-Cyano-5-methyl-4-phenyl)hexyl]-4-[2-(4-methylthiophenoxy)ethyl]piperazine] | 5.34
17 | CC(C)C(C#N)(CCCN1CCN(CCOc2ccccc2C#N)CC1)c1ccccc1 (centres unmarked) [Example 46, 1-[(4-Cyano-5-methyl-4-phenyl)hexyl]-4-[2-(2-cyanophenoxy)ethyl]piperazine] | 4.80
18 | CC(C)C(C#N)(CCCN1CCN(CCOc2ccc(C#N)cc2)CC1)c1ccccc1 (centres unmarked) [Example 47, 1-[(4-Cyano-5-methyl-4-phenyl)hexyl]-4-[2-(4-cyanophenoxy)ethyl]piperazine] | 4.89
19 | CC(C)C(C#N)(CCCN1CCN(CCOCc2ccccc2)CC1)c1ccccc1 (centres unmarked) [Example 48, 1-[(4-Cyano-5-methyl-4-phenyl)hexyl]-4-[2-(benzyloxy)ethyl]piperazine] | 5.08
20 | CC(C)C(C#N)(CCCN1CCN(CCSc2ccc(F)cc2)CC1)c1ccccc1 (centres unmarked) [Example 49, 1-[(4-Cyano-5-methyl-4-phenyl)hexyl]-4-[2-(4-fluorophenylthio)ethyl]piperazine] | 5.32
21 | CC(C)C(C#N)(CCCN1CCN(CCNc2ccc(F)cc2)CC1)c1ccccc1 (centres unmarked) [Example 51, 1-[(4-Cyano-5-methyl-4-phenyl)hexyl]-4-[2-(4-fluorophenylamino)ethyl]piperazine] | 5.12

Row | Structure (SMILES) | pIC50
22 | CC(=O)N(CCN1CCN(CCCC(C#N)(c2ccccc2)C(C)C)CC1)Cc1ccccc1 (centres unmarked) [Example 56, 1-[(4-Cyano-5-methyl-4-phenyl)hexyl]-4-[2-(N-acetyl-N-benzylamino)ethyl]piperazine] | 4.80
23 | CC(C)C(C#N)(CCCN1CCN(CCC(=O)c2ccc(F)cc2)CC1)c1ccccc1 (centres unmarked) [Example 59, 1-[(4-Cyano-5-methyl-4-phenyl)hexyl]-4-[2-(4-fluorobenzoyl)ethyl]piperazine] | 4.92
24 | CC(C)C(C#N)(CCCN1CCN(CCC(O)c2ccc(F)cc2)CC1)c1ccccc1 (centres unmarked) [Example 60, 1-[(4-Cyano-5-methyl-4-phenyl)hexyl]-4-[-hydroxy-3-(4-flurophenyl)propyl]piperazine] | 5.00
25 | CC(C)C(C#N)(CCCN1CCN(C(=O)COc2ccc(F)cc2)CC1)c1ccccc1 (centres unmarked) [Example 61, 1-[(4-Cyano-5-methyl-4-phenyl)hexyl]-4-[2-(4-fluorophenoxy)acetyl]piperazine] | 4.96
26 | CC(C)C(C#N)(CCCN1CCN(CC(O)COc2ccc(F)cc2)CC1)c1ccccc1 (centres unmarked) [Example 62, 1-[(4-Cyano-5-methyl-4-phenyl)hexyl]-4-[2-hydroxy-3-(4-fluorophenoxy)propyl]piperazine] | 5.06
27 | CC(C)C(C#N)(CCCN1CCN(CCC(=O)Nc2ccc(F)cc2)CC1)c1ccccc1 (centres unmarked) [Example 63, 1-[(4-Cyano-5-methyl-4-phenyl)hexyl]-4-[2-(4-fluorophenylaminocarbonyl)ethyl]piperazine] | 5.13
28 | CC(C)C(C#N)(CCCN1CCN(CC(=O)Nc2ccc(F)cc2)CC1)c1ccccc1 (centres unmarked) [Example 65, 1-[(4-Cyano-5-methyl-4-phenyl)hexyl]-4-[N-(4-fluorophenyl)carbamoylmethyl]piperazine] | < 4.80
29 | CC(C)C(C#N)(CCCN1CCN(CCNS(=O)(=O)c2ccc(F)cc2)CC1)c1ccccc1 (centres unmarked) [Example 66, 1-[(4-Cyano-5-methyl-4-phenyl)hexyl]-4-[2-(4-fluorobenzenesulfonylamino)ethyl]piperazine] | 5.09
30 | CC(C)C(C#N)(CCCN1CCN(CCS(=O)(=O)Nc2ccc(F)cc2)CC1)c1ccccc1 (centres unmarked) [Example 67, 1-[(4-Cyano-5-methyl-4-phenyl)hexyl]-4-{2-[N-(4-fluorophenyl)sulfamoyl]ethyl}piperazine] | 5.00
31 | CC(C)C(C#N)(CCCN1CCN(CCS(=O)(=O)N(C)c2ccc(F)cc2)CC1)c1ccccc1 (centres unmarked) [Example 68, 1-[(4-Cyano-5-methyl-4-phenyl)hexyl]-4-{2-[N-(4-fluorophenyl)-N-methylsulfamoyl]ethyl}piperazine] | 5.06
32 | CC(C)C(C#N)(CCCN1CCN(CCN(C)S(=O)(=O)c2ccc(F)cc2)CC1)c1ccccc1 (centres unmarked) [Example 69, 1-[(4-cyano-5-methyl-4-phenyl)hexyl]-4-[2-(N-methyl-4-fluorobenzenesulfonylamino)ethyl]piperazine] | 5.04
33 | CC(C)C(C#N)(CCCN1CCN(CCOC(=O)Sc2ccc(F)cc2)CC1)c1ccccc1 (centres unmarked) [Example 70, 1-[(4-Cyano-5-methyl-4-phenyl)hexyl]-4-{2-[(4-fluorophenylthio)carbonyloxyl]ethyl}piperazine] | 5.42
34 | CC(C)C(C#N)(CCCN1CCN(CCOc2ccccn2)CC1)c1ccccc1 (centres unmarked) [Example 71, 1-[(4-Cyano-5-methyl-4-phenyl)hexyl]-4-[2-(2-pyridyloxy)ethyl]piperazine] | < 4.80
35 | CC(C)(O)C(C#N)(CCCN1CCN(CCOc2ccc(F)cc2)CC1)c1ccccc1 (centres unmarked) [Example 81, 1-[(4-Cyano-5-hydroxy-5-methyl-4-phenyl)hexyl]-4-[2-(4-fluorophenoxyl)ethyl]piperazine] | < 4.80
36 | C=C(C)C(C#N)(CCCN1CCN(CCOc2ccc(F)cc2)CC1)c1ccccc1 (centres unmarked) [Example 82, 1-[5-(4-Cyano-5-methyl-4-phenyl)hexenyl]-4-[2-(4-fluorophenoxyl)ethyl]piperazine] | 5.30
37 | CC(C)C(C#N)(CCCN1CCN(CCOc2ccc(F)cc2)CC1)c1ccc(O)cc1 (centres unmarked) [Example 83, 1-[4-Cyano-5-methyl-4-(4-hydroxyphenyl)hexyl]-4-[2-(4-fluorophenoxy)ethyl]piperazine] | 4.89
38 | CC(C)C(C#N)(CCCN1CCN(CCOc2ccc(F)cc2O)CC1)c1ccccc1 (centres unmarked) [Example 84, 1-[(4-Cyano-5-methyl-4-phenyl)hexyl]-4-[2-(2-hydroxy-4-fluorophenoxy)ethyl]piperazine] | 5.22
39 | N#CC(F)(CCCN1CCN(CCOc2ccc(F)cc2)CC1)c1ccccc1 (centres unmarked) [Example 85, 1-[(4-Cyano-4-fluoro-4-phenyl)butyl]-4-[2-(4-fluorophenoxy)ethyl]piperazine] | 4.80
40 | CCOC(=O)COc1cc(F)ccc1OCCN1CCN(CCCC(C#N)(c2ccccc2)C(C)C)CC1 (centres unmarked) [Example 86, 1-[(4-Cyano-5-methyl-4-phenyl)hexyl]-4-[2 (2-ethoxycarbonylmethoxy-4-fluorophenoxy)ethyl]piperazine] | 5.37
41 | CC(C)C(C#N)(CCCN1CCN(CCOc2ccc(F)cc2OCCO)CC1)c1ccccc1 (centres unmarked) [Example 87, 1-[(4-Cyano-5-methyl-4-phenyl)hexyl]-4-[2-(2-hydroxyethoxy-4-fluorophenoxy)ethyl]piperazine] | < 4.80
